Measurements as given in PubChem BioAssay AID743296 (The Scripps Research Institute Molecular Screening Center, 2014).
Calls of active or inactive are those of the source. No rule for the calls is given here.

target: CCHFV viral ovarian tumor domain protease (vOTU, L protein); assay: CCHFV vOTU protease inhibitor potency, dose response, biochemical, fluorescence, Pep-AMC substrate (AID 743296); details: recombinant CCHFV vOTU

Structure (SMILES) | IC50
CCOC(=O)c1c2c(n(Cc3ccccc3)c1C)C(=O)C(=O)c1ccccc1-2 | 2.12 µM
Cc1cnc(C2OCCO2)c2cccc(N)c12 | inactive
O=C(OCc1nnc(-c2ccccc2)o1)c1ccc([N+](=O)[O-])s1 | 6.91 µM
CC1CCCC(NC(=O)COC(=O)c2ccc([N+](=O)[O-])s2)C1C (configuration not stated) | 9.29 µM
Cn1nc(-c2ccccn2)nc2c(=O)n(C)c(=O)nc1-2 | 0.251 µM
NS(=O)(=O)c1ccc(NC2=CC(=O)C(=O)c3ccccc32)cc1 | 4.22 µM
Cc1ccc(N2C(=O)[C@@H]3[C@H](C2=O)C2c4ccccc4C=CN2[C@@H]3C(=O)c2ccco2)cc1 (some centres not stated) | 6.53 µM
CCc1cc[n+](C2=C(NS(=O)(=O)c3cccs3)C(=O)c3ccccc3C2=O)cc1 | 3.5 µM
O=C(COC(=O)c1ccc([N+](=O)[O-])s1)Nc1ncc(C(F)(F)F)cc1Cl | inactive
O=C1Cc2ccccc2C(=O)N1Cc1ccccc1 | 1.19 µM
CC(C)=CCC1=C(OCC(=O)O)C(=O)c2ccccc2C1=O | 3.23 µM
O=C1Cc2ccccc2C(=O)N1CCc1ccccc1 | 0.901 µM
Cc1ccccc1-c1cc2c(nn1)-c1ccccc1C2=O | 0.545 µM
Cc1ccc2c(c1C)-c1c(ccc(C)c1C)C(=O)C2=O | 7.46 µM
COc1cc(C(=O)c2nccc3cc(OC)c(OC)cc23)c([N+](=O)[O-])cc1OC | 1.42 µM
CN(C1=C(NC(=O)c2ccccc2)C(=O)c2ccccc2C1=O)C1CCS(=O)(=O)C1 (configuration not stated) | 2.67 µM
COc1ccc2noc3c2c1C(=O)c1ccccc1-3 | 8.11 µM
COc1cc(NCCCCCCN)c2ncccc2c1OC | inactive
O=C(O)CSc1cc(NS(=O)(=O)c2ccc(Cl)cc2)c2ccccc2c1O | 3.4 µM
NC1=C(Cl)C(=O)c2ccc(S(N)(=O)=O)cc2C1=O | 0.122 µM
S=C(Nc1ccc(Cl)cc1)Nc1cccc2cnccc12 | inactive
Cc1c(Cl)cnc(NC(=O)COC(=O)c2ccc([N+](=O)[O-])s2)c1Cl | inactive
O=C(O)CSc1cc(NS(=O)(=O)c2ccc(Br)cc2)c2ccccc2c1O | 1.66 µM
CCC(CNc1cc(OC)cc2cccnc12)NC1CCCCC1 (configuration not stated) | 5.86 µM
Nc1cc2c(cc1Br)[nH]c(=O)c1ccccc12 | inactive
COc1cc2c(cc1O)[C@@H]1Cc3ccc(OC)c(O)c3CN1CC2 | inactive

Structure (SMILES) | IC50
CC1(C)C=C2C(=NN(c3ccccc3)C(N)=C2C#N)CO1 | 1.54 µM
O=C(NC1=CC(=O)c2ccccc2C1=O)c1ccccc1 | 4.64 µM
COc1cc(NC(=O)COC(=O)c2ccc([N+](=O)[O-])s2)cc(OC)c1OC | 8.38 µM
COC(CNC(=O)c1ccc2c3c(onc13)-c1ccccc1C2=O)OC | 7.11 µM
Cc1ccc(NC2=CC(=O)C(=O)c3ccccc32)cc1 | 5.14 µM
O=C(COC(=O)c1ccc([N+](=O)[O-])s1)NCc1ccc(F)cc1 | 9.46 µM
O=S(=O)(Nc1cc(Sc2ncn[nH]2)c(O)c2ccccc12)c1ccccc1 | 0.458 µM
O=C(O)CSc1cc(NS(=O)(=O)c2cccc([N+](=O)[O-])c2)c2ccccc2c1O | 1.95 µM
O=C1OC(Nc2cc(Br)cc3cccnc23)c2ccccc21 (configuration not stated) | > 115 µM (inactive)
O=C(c1ccco1)[C@@H]1[C@@H]2C(=O)N(c3ccc(Br)cc3)C(=O)[C@@H]2C2c3ccccc3C=CN21 (some centres not stated) | 5.18 µM
O=C1Cc2ccccc2C(=O)N1 | 0.419 µM
COC1=C(N)C(=O)c2nc(C)ccc2C1=O | 0.824 µM
CCOC(=O)C1=C(COC(=O)c2ccc([N+](=O)[O-])s2)NC(=O)NC1C (configuration not stated) | 7.97 µM
CC(=O)c1ccc(NC(=S)Nc2cccc3cnccc23)cc1 | > 115 µM (inactive)
NS(=O)(=O)c1ccc(NC(=O)COC(=O)c2ccc([N+](=O)[O-])s2)cc1 | 8.1 µM
O=C(COC(=O)c1ccc([N+](=O)[O-])s1)Nc1ccc(F)cc1 | 7.27 µM
COc1ccccc1NC(=O)COC(=O)c1ccc([N+](=O)[O-])s1 | 7.82 µM
CCOC(=O)N=Nc1c2ccccc2c2nc3no[nH]c3nc12 | 2.54 µM
O=C(/C=C/c1ccc(O)cc1)c1ccc(NC2=C(N3CCCCC3)C(=O)c3ccccc3C2=O)cc1 | 4.19 µM
O=C1C=C(Nc2ccccc2)c2ccccc2C1=O | 6.64 µM
CC1COCC(C)N1C1=C(Cl)C(=O)c2ccccc2C1=O (configuration not stated) | 7.43 µM
O=C(COC(=O)c1ccc([N+](=O)[O-])s1)Nc1ccccc1 | 8.21 µM
O=C(NC1=C(NC2CCS(=O)(=O)C2)C(=O)c2ccccc2C1=O)c1ccccc1 (configuration not stated) | 2.79 µM
COc1cc(NCCCC(C)N)c2ncccc2c1 (configuration not stated) | > 115 µM (inactive)
O=S(=O)(Nc1cc2nc3ccccc3nc2n1Cc1ccccc1)c1ccc(Cl)cc1 | 4.14 µM
COc1cc(Br)c(C(=O)c2nccc3cc(OC)c(OC)cc23)cc1OC | 0.276 µM
